# From ChEMBL document CHEMBL1201862, “PubChem BioAssay data set” (2004)
# Active and inactive are the calls of the source.
# Assays:
# [1] = target: T1, Low molecular weight phosphotyrosine protein phosphatase (Homo sapiens, UniProt P24666); assay: inhibition of human LMPTP enzyme activity – biochemical, absorbance, pNPP substrate, LMPTP-A isoform, set 2, orthogonal assay, dose response (AID 743308); format: functional
# T1 sequence (P24666 whole entry): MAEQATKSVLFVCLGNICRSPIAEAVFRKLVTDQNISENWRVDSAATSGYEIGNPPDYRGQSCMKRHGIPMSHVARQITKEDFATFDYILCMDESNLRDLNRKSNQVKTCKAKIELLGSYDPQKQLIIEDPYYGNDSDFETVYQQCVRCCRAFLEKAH
# [2] = target: T1, Low molecular weight phosphotyrosine protein phosphatase; assay: inhibition of LMPTP-A enzymatic activity – biochemical, OMFP substrate, fluorescence intensity, set 2, dose response (AID 743307); format: functional
# [3] = glucagon-like peptide-1 release potency in STC-1, concentration-response, half-maximal inhibitory concentration in the STC-1 line (AID 1117345); format: functional, cell-based
# [4] = Potency on glucagon-like peptide 1 release, dose-response in NCI-H716 cell line, half maximal inhibitory concentration (AID 1117344); format: functional, cell-based
# [5] = toxicity to human hepatoma HepG2 cells – cell-based, cherry-picked samples, cytotoxicity control, dose response (AID 1159577); format: functional
# [6] = P. falciparum Dd2 growth inhibitors, dose response, SYBR Green, cherry-picked samples (AID 1159567); format: functional, cell-based
# [7] = target: G-protein coupled receptor 183 (Homo sapiens, UniProt P32249); assay: SAR confirmation of small molecule antagonists of the EBI2 receptor via a luminescent beta-arrestin assa.; format: functional
# Chain of G-protein coupled receptor 183 (P32249 whole entry): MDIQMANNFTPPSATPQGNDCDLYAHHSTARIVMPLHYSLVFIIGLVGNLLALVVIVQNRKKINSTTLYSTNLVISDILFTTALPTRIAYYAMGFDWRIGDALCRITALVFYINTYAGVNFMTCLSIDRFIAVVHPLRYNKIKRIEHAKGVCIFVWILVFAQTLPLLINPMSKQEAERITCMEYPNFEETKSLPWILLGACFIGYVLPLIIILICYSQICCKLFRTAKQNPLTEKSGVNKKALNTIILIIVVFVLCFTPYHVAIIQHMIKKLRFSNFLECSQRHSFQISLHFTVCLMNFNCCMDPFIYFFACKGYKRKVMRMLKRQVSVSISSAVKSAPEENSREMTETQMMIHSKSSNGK
# [8] = Dd2 malaria parasite growth inhibition potency – SYBR Green, dry powder samples, dose response (AID 1159566); format: functional, cell-based;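 further: potency for growth inhibition with lower SYBR green DNA signal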
# [9] = growth inhibition of PfATP4-mutant resistant parasites – NITD609-resistant line, SYBR Green, dry powder, dose response (AID 1159571); format: functional, cell-based;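 further: parasites synchronized at ring stage by sorbitol before testing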
# [10] = antimalarial activity against Dd2 parasites – SYBR Green fluorescence, erythrocytes, dry powder, set 2, dose response (AID 1159574); format: functional, cell-based
# [11] = growth inhibition of yeast DHODH-expressing 3D7 parasites – SYBR Green, dry powder samples, dose response (AID 1159570); format: functional, cell-based;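 further: parasite growth measured after 72 hours of compound exposure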
compound,measurement,setting,value
CC(C)Nc1nc(-c2ccccc2)nc2ccccc12,IC50,[1],35.8 µM (inactive)
same,IC50,[2],15 µM (active)
CCCCCCCCCCCCCCNCCO,IC50,[3],> 20 µM (inactive)
same,IC50,[4],13.6 µM (inactive)
N#C[C@@H]1[C@H](c2ccc(C#Cc3ccccc3F)cc2)[C@H](CO)N1C(=O)C1CCCC1,AC50,[5],> 39 µM (inactive)
same,AC50,[6],3.48 µM (active)
O=C(/C=C/c1ccc(F)cc1)N1CCN(S(=O)(=O)c2ccc(Cl)cc2)CC1,IC50,[7],0.00548 µM (active)
O=C(c1ccccc1F)N1CC(=O)N2[C@H](C1)[C@@H](c1ccc(-c3cccnc3)cc1)[C@@H]2CO,AC50,[8],0.00824 µM (active)
same,AC50,[9],0.0146 µM (active)
same,AC50,[10],0.0331 µM (active)
same,AC50,[6],< 0.3 µM (active)
same,AC50,[11],0.0369 µM (active)
